{"source": "patent US5719121A", "about": "“Use of balhimycin as production promoter in animals, and production promoter compositions” (Hoechst Aktiengesellschaft, priority 1995, dated 1998)", "system": "broilers", "test": "Feeding experiment with balhimycin in broilers (floor management, 35 days): growth and feed utilization", "format": "in vivo", "details": "for Feed Intake, compared to the control value of 100% / Feed Utilization, compared to the control value of 100% / Live weight End, compared to the control value of 100% / Live weight Gain, compared to the control value of 100%: control = 100; for Feed Intake / Feed Utilization kg of FI/kg of LW / Live weight End: group mean", "experimental": "A feeding experiment with balhimycin was carried out in floor management using […] broilers (80 males and 80 females) which were divided into 5 groups:\n1st group: untreated control\n2nd group: balhimycin, 15 mg/kg of feed\n3rd group: balhimycin, 30 mg/kg of feed\n4th group: balhimycin, 45 mg/kg of feed\n5th group: balhimycin, 60 mg/kg of feed\nThe feed had the following composition (Table 1):\nThe animals were kept in boxes of 40 animals each and were given the feed mixtures for 35 days in accordance with their group assignment.\nIn Table 2, the first number in each column directed to weight change, feed intake, and feed utilization, indicates the number average for the broilers in each group. The second number indicates the standard deviation of the data. The third number indicates the percent difference of each group as compared to the control value of 100%.\nDifferent letters (a, b, ab, c) in the gain column denote significant differences between the groups (P<0.05). Values having the same letter or letters indicate that there is no significant difference between the groups.", "data": [{"smiles": "CNC(CC(C)C)C(=O)NC1C(=O)NC(CC(N)=O)C(=O)NC2C(=O)NC3C(=O)NC(C(=O)NC(C(=O)O)c4cc(O)cc(O)c4-c4cc3ccc4O)C(OC3C[C@](C)(N)C(=O)C(C)O3)c3ccc(c(Cl)c3)Oc3cc2cc(c3OC2O[C@H](CO)C(O)[C@H](O)C2O)Oc2ccc(cc2Cl)C1O", "note": "(stereo partly shown) [Balhimycin]", "values": [{"measurement": "Feed Intake, compared to the control value of 100%", "setting": "balhimycin 15 mg/kg of feed", "value": 99.9, "unit": "%"}, {"measurement": "Feed Utilization, compared to the control value of 100%", "setting": "balhimycin 15 mg/kg of feed", "value": 92.0, "unit": "%"}, {"measurement": "Live weight End, compared to the control value of 100%", "setting": "balhimycin 15 mg/kg of feed", "value": 108.1, "unit": "%"}, {"measurement": "Live weight Gain, compared to the control value of 100%", "setting": "balhimycin 15 mg/kg of feed", "value": 108.4, "unit": "%"}, {"measurement": "Feed Intake", "setting": "balhimycin 15 mg/kg of feed", "value": 72.5, "unit": "g/day"}, {"measurement": "Feed Utilization kg of FI/kg of LW", "setting": "balhimycin 15 mg/kg of feed", "value": "1.62 kg of FI/kg of LW"}, {"measurement": "Live weight End", "setting": "balhimycin 15 mg/kg of feed", "value": 1602.0, "unit": "g"}, {"measurement": "Feed Intake, compared to the control value of 100%", "setting": "balhimycin 30 mg/kg of feed", "value": 100.6, "unit": "%"}, {"measurement": "Feed Utilization, compared to the control value of 100%", "setting": "balhimycin 30 mg/kg of feed", "value": 93.8, "unit": "%"}, {"measurement": "Live weight End, compared to the control value of 100%", "setting": "balhimycin 30 mg/kg of feed", "value": 110.7, "unit": "%"}, {"measurement": "Live weight Gain, compared to the control value of 100%", "setting": "balhimycin 30 mg/kg of feed", "value": 110.8, "unit": "%"}, {"measurement": "Feed Intake", "setting": "balhimycin 30 mg/kg of feed", "value": 75.3, "unit": "g/day"}, {"measurement": "Feed Utilization kg of FI/kg of LW", "setting": "balhimycin 30 mg/kg of feed", "value": "1.65 kg of FI/kg of LW"}, {"measurement": "Live weight End", "setting": "balhimycin 30 mg/kg of feed", "value": 1640.0, "unit": "g"}, {"measurement": "Feed Intake, compared to the control value of 100%", "setting": "balhimycin 45 mg/kg of feed", "value": 100.6, "unit": "%"}, {"measurement": "Feed Utilization, compared to the control value of 100%", "setting": "balhimycin 45 mg/kg of feed", "value": 92.0, "unit": "%"}, {"measurement": "Live weight End, compared to the control value of 100%", "setting": "balhimycin 45 mg/kg of feed", "value": 109.1, "unit": "%"}, {"measurement": "Live weight Gain, compared to the control value of 100%", "setting": "balhimycin 45 mg/kg of feed", "value": 109.3, "unit": "%"}, {"measurement": "Feed Intake", "setting": "balhimycin 45 mg/kg of feed", "value": 73.0, "unit": "g/day"}, {"measurement": "Feed Utilization kg of FI/kg of LW", "setting": "balhimycin 45 mg/kg of feed", "value": "1.62 kg of FI/kg of LW"}, {"measurement": "Live weight End", "setting": "balhimycin 45 mg/kg of feed", "value": 1617.0, "unit": "g"}, {"measurement": "Feed Intake, compared to the control value of 100%", "setting": "balhimycin 60 mg/kg of feed", "value": 100.7, "unit": "%"}, {"measurement": "Feed Utilization, compared to the control value of 100%", "setting": "balhimycin 60 mg/kg of feed", "value": 93.2, "unit": "%"}, {"measurement": "Live weight End, compared to the control value of 100%", "setting": "balhimycin 60 mg/kg of feed", "value": 108.0, "unit": "%"}, {"measurement": "Live weight Gain, compared to the control value of 100%", "setting": "balhimycin 60 mg/kg of feed", "value": 108.1, "unit": "%"}, {"measurement": "Feed Intake", "setting": "balhimycin 60 mg/kg of feed", "value": 73.1, "unit": "g/day"}, {"measurement": "Feed Utilization kg of FI/kg of LW", "setting": "balhimycin 60 mg/kg of feed", "value": "1.64 kg of FI/kg of LW"}, {"measurement": "Live weight End", "setting": "balhimycin 60 mg/kg of feed", "value": 1600.0, "unit": "g"}]}]}
